Laboratory results reported in patent US20230255935A1, “ANTI-VIRAL COMPOUNDS AND METHODS FOR SCREENING SAME AND TREATING VIRAL INFECTIONS” (priority 2020, published 2023).
Read-outs that look alike come from different tables or passages of the source.

Experiments:
[1] = in vitro; settings: African green monkey
[2] = tested on: MERS-CoV; test: microbe, parasite or virus in culture; settings: Middle East respiratory syndrome-related coronavirus, Vero C1008, 48 h
[3] = target: T1, full-length MERS-CoV N protein (Middle East respiratory syndrome-related coronavirus, UniProt K9N4V7)
[4] = tested on: MHV; format: cell-based, mouse hepatitis virus (MHV)
[5] = target: T2, MERS-CoV N-NTD (Middle East respiratory syndrome-related coronavirus, UniProt K9N4V7)
[6] = tested on: MERS-CoV; format: cell-based
[7] = tested on: MHV; test: MHV-infected mice treated with PSX-01 (clinical score, body weight, liver histology); settings: PSX-01 10 mM intraperitoneal
[8] = tested on: SARS-CoV2
[9] = target: T1, full-length MERS-CoV N protein; remark: listed apart in the source
[10] = target: T2, MERS-CoV N-NTD; remark: listed apart in the source
[11] = tested on: MERS-CoV N protein; format: cell-based
[12] = target: T1, full-length MERS-CoV N protein; remark: listed apart in the source
[13] = tested on: SARS-CoV2; format: cell-based
[14] = tested on: MERS-CoV; format: cell-based; remark: listed apart in the source
[15] = tested on: PEDV; format: cell-based, porcine epidemic diarrhea virus (PEDV)
[16] = tested on: MERS-CoV
[17] = tested on: MERS-CoV; format: cell-based; remark: listed apart in the source

CCc1cccc2c3c([nH]c12)C(CC)(CC(=O)O)OCC3 (centres unmarked) [Compound P2, etodolac]
CC50 [1]: 570 µM | EC50 [2]: > 100 µM

O=C(OCc1ccccc1)N1c2ccccc2CC1CO (centres unmarked) [Compound P1, benzyl 2-(hydroxymethyl)-1-indolinecarboxylate]
CC50 [1]: 460 µM | EC50 [2]: > 100 µM

CN(C)Cc1c[nH]c2ccc(OCc3ccccc3)cc12 [PSX-01, 5-benzyloxygramine]
maximum dimension (Dmax) of N protein [3]: 230 | cytopathic effect [4]: significantly reduce the cytopathic effect | N-NTD denaturation melting temperature [5]: 45 °C | cytopathic effect [6]: significantly reduce the cytopathic effect | appearance (clinical score) ([7]; 4 h before MHV 10^4 pfu, mice): prevent the appearance change caused by MHV | liver histology (H&E stain) ([7]; MHV infection, day 7): rescue the increases of adipocytes and inflammation | EC50 [8]: 35 µM | TI (CC50/EC50) [8]: 23 | N protein thermal denaturation [9]: delayed N protein thermal denaturation | binding to the N protein relative to the other leads [10]: bound more tightly to the N protein than P1 or P2 | shift in the intrinsic N-NTD fluorescence spectrum [10]: comparatively larger blue shift | N protein expression [11]: suppressed N protein expression in most cells | intracellular N protein distribution [11]: condensation of the intracellular N protein fluorescence signal | shift in the fluorescence spectrum of full-length N protein [12]: “blue shift” was observed | viral titer (plaque assay) [13]: affected the viral titer | extracellular viral titer (plaque assay) [14]: affected the viral titer | viral production (plaque assay) [14]: halted | cytopathic effect [15]: significantly reduce the cytopathic effect | EC50 [16]: 32.1 µM | TI (CC50/EC50) [16]: 25.1 | suppression of viral RNA replication [17]: 40% | viral RNA replication [17]: halted
